Results: patent US20130059879A1, “Small Molecule Inhibitors of PFKFB3 and Glycolytic Flux and Their Methods of Use as Anti-Cancer Therapeutics” (UNIVERSITY OF LOUISVILLE RESEARCH FOUNDATION, INC., priority 2010, published 2013)

Assays:
[1] = Cell permeability in Caco2 monolayers; assay type: in vitro ADME; conditions: human, Caco-2, Caco2 cells, pH 7.4
Source text: (§1) The determination of the permeability in Caco2 or MDR1-MDCK cells is widely used when screening compounds to assess cell permeability, intestinal drug transport and predict absorption rates and to ascertain if a compound might be a Pgp substrate and have cross the blood brain barrier. […] Comparison of the apical to basal (A-B) and basal to apical (B-A) values show if a compound is actively effluxed out the cells and if it is a Pgp substrate. […] Briefly, cell permeability and transport mechanisms in Caco-2 and MDR1-MDCK monolayers experiments were performed in triplicate in the apical-to-basolateral and basolateral-to-apical direction using Transwell wells containing either Caco-2 or MDR1-MDCK monolayers. A modified Hanks buffer pH 7.4 was used in both reservoir and receiver wells with the addition of 1% BSA in the receiver side. Confluent monolayers were used and their integrity was verified using reference compounds (Atenolol as a low permeability reference compound and Propanolol as a high permeability reference compound). A sample in the basolateral and apical sides was taken after 2 hours and the concentration measured by LC/MS-MS.

Jurkat = assay: Cell proliferation, MTT assay, 72 hours; assay type: cell-based; conditions: Homo sapiens
Experimental: (§2) The ability of the compounds described herein to kill or inhibit the proliferation of cancer cells was measured using either the MTT assay, or the Alamar Blue assay, or the Cell Titer Glow® assay using 48 or 72 hours exposure. […] The procedures are briefly described below. Cells of the desired tumor cell line were plated at 2×10^5 cells/ml in 96 well plates. Twice the indicated concentrations of the compounds of the invention were added to cells the following day in an equal volume of media. 72 hours later, cells were lysed and subjected to ATP determination using the CellTiter Glo-Luminescent Cell Viability Assay kit (Promega, Madison, Wis.). Experiments were done in triplicate. When using the MTT assay or the Alamar blue assay, the experimental conditions are essentially similar; at the end of the incubation period, 20 microliters of the MTT solution is added per well and the samples are incubated for an additional four hours, rinsed, and the absorbance at 570 nm measured. […] Table 2 lists the IC50 values for the compounds of the invention in several cell lines including Jurkat, Calu-6, NCI-H82, U937, HCT-116, and MDA-MB-231 cancer cell lines.

MDA-MB-231 = assay: Cell proliferation, MTT assay, 72 hours; assay type: cell-based; conditions: Homo sapiens, MDA-MB-231, MTT assay
Experimental: as §2

Hep G2 = assay: Cell proliferation, MTT assay, 72 hours; assay type: cell-based; conditions: Homo sapiens, HepG2
Experimental: as §2

Hela = assay: Cell proliferation, MTT assay, 72 hours; assay type: cell-based; conditions: Homo sapiens
Experimental: as §2

PC3 = assay: Cell proliferation, MTT assay, 72 hours; assay type: cell-based; conditions: Homo sapiens, PC-3
Experimental: as §2

HCT-116 = assay: Cell proliferation, MTT assay, 72 hours; assay type: cell-based; conditions: Homo sapiens, HCT-116, MTT assay
Experimental: as §2

Calu-6 = assay: Cell proliferation, MTT assay, 72 hours; assay type: cell-based; conditions: Homo sapiens, Calu-6, MTT assay
Experimental: as §2

H209 = assay: Cell proliferation, MTT assay, 72 hours; assay type: cell-based; conditions: Homo sapiens, NCI-H209
Experimental: as §2

NCI-H82 = assay: Cell proliferation, MTT assay, 72 hours; assay type: cell-based; conditions: Homo sapiens
Experimental: as §2

K562 = assay: Cell proliferation, MTT assay, 72 hours; assay type: cell-based; conditions: Homo sapiens
Experimental: as §2

DU145 = assay: Cell proliferation, MTT assay, 72 hours; assay type: cell-based; conditions: Homo sapiens, DU-145
Experimental: as §2

HT-29 = assay: Cell proliferation, MTT assay, 72 hours; assay type: cell-based; conditions: Homo sapiens, HT-29, MTT assay
Experimental: as §2

U937 = assay: Cell proliferation, MTT assay, 72 hours; assay type: cell-based; conditions: Homo sapiens, U-937
Experimental: as §2

Pharmacokinetics in dogs = assay type: in vivo; conditions: male beagle dogs
Experimental: The pharmacokinetic parameters for several compounds were determined in mice following IV (intravenous), IP (intraperitoneal), or PO (per os) administration, as well as in rats and dogs. A typical study design includes six Balbc male mice 7 to 8 weeks old. For instance, a dose of 10 mg/kg was administered IV using a 5% DMS0/90% Captisol (20% in water) solution or other pharmaceutically acceptable parenteral and oral formulations. Blood samples were collected at different intervals. Plasma samples were extracted and analyzed using an LC-MS/MS method. Similar protocols were used for the rats (Sprague Dawley rats) or dogs (beagles) PK studies; in the case of dogs PK studies, the number of animals per group was three.
PFK-065 was dosed at 10 mg/kg in male Balbc mice; PFK-095 was dosed at 10 mg/kg in male Sprague Dawley rats; and PFK-112 dosed at 6 mg/kg in male beagle dogs.

[2] = Cell permeability in MDR1-MDCK monolayers; assay type: in vitro ADME; conditions: dog, MDR1-MDCK cells, pH 7.4
Source text: as §1

MiaPaca = assay: Cell proliferation, MTT assay, 48 hours; assay type: cell-based; conditions: Homo sapiens, MIA PaCa-2
Experimental: as §2

BX-PC-3 = assay: Cell proliferation, MTT assay, 48 hours; assay type: cell-based; conditions: Homo sapiens, BXPC-3, BX-PC-3, MTT assay
Experimental: as §2

BT474 = assay: Cell proliferation, MTT assay, 48 hours; assay type: cell-based; conditions: Homo sapiens, BT-474
Experimental: as §2

A549 = assay: Cell proliferation, MTT assay, 48 hours; assay type: cell-based; conditions: Homo sapiens
Experimental: as §2

SK-BR-3 = assay: Cell proliferation, MTT assay, 48 hours; assay type: cell-based; conditions: Homo sapiens, SK-BR-3, MTT assay
Experimental: as §2

U87MG = assay: Cell proliferation, MTT assay, 48 hours; assay type: cell-based; conditions: Homo sapiens, U-87 MG
Experimental: as §2

H22 = assay: Cell proliferation, MTT assay, 48 hours; assay type: cell-based; conditions: Mus musculus
Experimental: as §2

## O=C(c1ccncc1)c1cc2c(ccc3ccccc32)[nH]1 [ACT-PFK-095, (3H-Benzo[e]indol-2-yl)-pyridin-4-yl-methanone]
[1]; apical to basal
  Papp A→B at 2 h: 16.2 ×10⁻⁶ cm/s
[1]; basal to apical
  Papp B→A at 2 h: 8.9 ×10⁻⁶ cm/s
Jurkat
  IC50: 4650 nM
MDA-MB-231
  IC50: 24900 nM
Hep G2
  IC50: 5500 nM
Hela
  IC50: 9100 nM
PC3
  IC50: 950 nM
HCT-116
  IC50: 510 nM
Calu-6
  IC50: 140 nM
H209
  IC50: 190 nM
NCI-H82
  IC50: 180 nM
K562
  IC50: 210 nM
DU145
  IC50: 940 nM
HT-29
  IC50: 450 nM
U937
  IC50: 50 nM

## Nc1ccc(C(=O)c2cc3c(ccc4ccccc43)[nH]2)cc1 [ACT-PFK-112, (4-Amino-phenyl)-(3H-benzo[e]indol-2-yl)-methanone]
Pharmacokinetics in dogs; IV 6 mg/kg
  T1/2b: 5.8 h
Pharmacokinetics in dogs; dog, plasma, IV 6 mg/kg
  AUC(0-inf): 5070 ng·h/mL
  Cmax: 5060 ng/mL
  Vd: 1.8 L/kg
Pharmacokinetics in dogs; oral bioavailability, PO 24 mg/kg vs IV 6 mg/kg
  % F (from PO group): 95%
[2]; apical to basal
  Papp A→B at 2 h: 7.8 ×10⁻⁶ cm/s
[2]; basal to apical
  Papp B→A at 2 h: 17.3 ×10⁻⁶ cm/s
MiaPaca
  IC50: 154 nM
BX-PC-3
  IC50: 135 nM
BT474
  IC50: 1370 nM
A549
  IC50: 822 nM
SK-BR-3
  IC50: 1110 nM
U87MG
  IC50: 3790 nM
H22
  IC50: 513 nM
